# Reference: ChEMBL document CHEMBL1151045, “Synthesis and evaluation of the anticonvulsant activity of a series of 2-amino-1-phenyl-1-propanols derived from the metabolites of the antidepressant bupropion” (1997)
# Where “and” joins values, the source holds several entries; their conditions need not be identical. Identical values can stand only once. Calls of active or inactive are those of the source. The rule behind the calls is not given here.
# Test system: Mus musculus
# Test: Anticonvulsant activity measured in Maximal electroshock assay (MES), intraperitoneal administration
# Assay type: functional
# Details: not given
row,Compound,ED50
1,"CC(NC(C)(C)C)[C@H](O)c1ccccc1 (single isomer, unassigned)",25 mg/kg
2,CC(NC(C)(C)C)C(O)c1cccc(Cl)c1 (racemic; form 2) [ERYTHRO-HYDROBUPROPION],26 mg/kg
3,C[C@@H](NC(C)(C)C)[C@H](O)c1cccc(C(F)(F)F)c1,17 mg/kg and 22 mg/kg
4,CC(NC(C)(C)C)C(O)c1cccc(C(F)(F)F)c1 (racemic; form 1),16 mg/kg
5,C[C@H](NC(C)(C)C)[C@H](O)c1cccc(Cl)c1 [ERYTHRO-HYDROBUPROPION],28 mg/kg
6,CC(NC(C)(C)C)C(O)c1cccc(Cl)c1 (racemic; form 1) [ERYTHRO-HYDROBUPROPION],14 mg/kg
7,C[C@@H](NC(C)(C)C)[C@H](O)c1cccc(Cl)c1 [ERYTHRO-HYDROBUPROPION],11 mg/kg

# Same assay, conditions: Mus musculus, ip; read-out: ED50
row,Compound,ED50 [mg/kg]
1,CCC(C)(C)N[C@H](C)[C@H](O)c1cccc(C(F)(F)F)c1,18
2,C[C@@H](NC(C)(C)C)[C@H](O)c1cccc(Br)c1,11
3,CC(C)N[C@H](C)[C@H](O)c1cccc(C(F)(F)F)c1,40
4,CCC(C)N[C@H](C)[C@H](O)c1cccc(C(F)(F)F)c1 (some centres undefined),31
5,C[C@@H](NC(C)(C)C)[C@H](O)c1ccc(Cl)cc1,29
6,O=C1NC(=O)C(c2ccccc2)(c2ccccc2)N1 [PHENYTOIN],8.5
7,C[C@H](NC(C)(C)C)[C@H](O)c1ccc(Cl)cc1,25
8,CC[C@H](NC(C)(C)C)[C@H](O)c1cccc(C(F)(F)F)c1,40
9,CC[C@@H](NC(C)(C)C)[C@H](O)c1cccc(C(F)(F)F)c1,31
10,C[C@H](NC(C)(C)C)[C@H](O)c1cccc(Br)c1,16
11,CCC[C@H](NC(C)(C)C)[C@H](O)c1cccc(Cl)c1,31
12,C[C@@H](NC(C)(C)C)[C@H](O)c1ccc(Cl)c(Cl)c1,13
13,CC[C@@H](NC(C)(C)C)[C@H](O)c1cccc(Cl)c1,15
14,C[C@@H](NC(C)(C)C)[C@H](O)c1ccccc1,14
15,CCC(C)(C)N[C@H](C)[C@H](O)c1cccc(Cl)c1,11
16,Cc1ccc([C@@H](O)[C@@H](C)NC(C)(C)C)cc1,33
17,C[C@H](NC(C)(C)C)[C@H](O)c1ccc(Cl)c(Cl)c1,31
18,CC(C)N[C@@H](C)[C@H](O)c1cccc(Cl)c1,20
19,CC[C@H](NC(C)(C)C)[C@H](O)c1cccc(Cl)c1,26
20,CC(NC(C)(C)C)C(O)c1cccc(C(F)(F)F)c1 (racemic; form 2),25
21,CCC(C)(C)N[C@@H](C)[C@H](O)c1cccc(C(F)(F)F)c1,28
22,CC(C)(C)NCC(O)c1cccc(Cl)c1 (centres undefined),28
23,CCC[C@H](NC(C)(C)C)[C@H](O)c1cccc(C(F)(F)F)c1,31
24,C[C@@H](NC1CCCCC1)[C@H](O)c1cccc(Cl)c1,13
25,CCC(C)(C)N[C@@H](C)[C@H](O)c1cccc(Cl)c1,23

# Test system: Mus musculus
# Test: Anticonvulsant activity of compound was tested in mice after intraperitoneal administration in Maximal electroshock assay (MES); Inactive at 13 mg/kg dose
# Assay type: functional, organism-based
# Parameters: dose 13 mg/kg
# Details: not given
row,Compound,ED50
1,CCCCN[C@H](C)[C@H](O)c1cccc(C(F)(F)F)c1,inactive

# Test system: Mus musculus
# Test: Anticonvulsant activity of compound was tested in mice after intraperitoneal administration in Maximal electroshock assay (MES); Inactive at 30 mg/kg dose
# Assay type: functional, organism-based
# Parameters: dose 30 mg/kg
# Details: not given
row,Compound,ED50
1,C[C@H](NC(C)(C)CO)[C@H](O)c1cccc(Cl)c1,inactive

# Test system: Mus musculus
# Test: Anticonvulsant activity of compound was tested in mice after intraperitoneal administration in Maximal electroshock assay (MES); Inactive at 40 mg/kg dose
# Assay type: functional, organism-based
# Parameters: dose 40 mg/kg
# Details: not given
row,Compound,ED50
1,C[C@@H](NC(C)(C)C)[C@H](O)c1cccc([N+](=O)[O-])c1,inactive
2,C[C@H](NC(C)(C)C)[C@H](O)c1cccc([N+](=O)[O-])c1,inactive
3,Cc1ccc([C@@H](O)[C@H](C)NC(C)(C)C)cc1,inactive

# Test system: Mus musculus
# Test: Anticonvulsant activity of compound was tested in mice after intraperitoneal administration in Maximal electroshock assay (MES); Inactive at 60 mg/kg dose
# Assay type: functional, organism-based
# Parameters: dose 60 mg/kg
# Details: not given
row,Compound,ED50
1,C[C@H](N)[C@H](O)c1cccc(Cl)c1,inactive

# Test system: Mus musculus
# Test: Anticonvulsant activity of compound was tested in mice after intraperitoneal administration in Maximal electroshock assay (MES); Inactive at 70 mg/kg dose
# Assay type: functional, organism-based
# Parameters: dose 70 mg/kg
# Details: not given
row,Compound,ED50
1,COc1ccc([C@@H](O)[C@H](C)NC(C)(C)C)cc1,inactive
